Measurements from publication PMC9916441, “Resveratrol Derivative Exhibits Marked Antiproliferative Actions, Affecting Stemness in Pancreatic Cancer Cells” (International Journal of Molecular Sciences, 2023).
Where two headings read alike, the source gives them in different places.

Key:
cyclin B1/CDK1 complex = assay: Western blot of cyclin B1, Cdc2/Cdk1 and p-Cdc2 (Thr161) in PC cell lines; assay type: cell-based, human; settings: 50 μM
Description: (§1) The PC cell lines treated with 50 μM DF5, RSV, or with vehicle (DMSO) were lysed in a cell lysis buffer containing PMSF, protease inhibitors cocktails, and phosphatase inhibitors. The protein lysate quantification and immunoblot analyses were performed as previously described.

Water solubility = assay type: physicochemical
Description: The solubility was determined as previously described. The calculated LogP (cLogP) value was determined using ACD LogP software package, version 4.55 (Advanced Chemistry Development Inc., Toronto, ON, Canada).

[1] = tested on: AsPC-1, BxPC-3 and Capan-2 PC cell lines; assay: Cell growth, trypan blue exclusion test; assay type: cell-based, human; settings: 50 μM, counted at 24, 48 and 72 h, three PC cell lines, vs control
Description: The cell counting was performed using the trypan blue exclusion test. Briefly, PC cells were seeded in 24-well plates (5 × 10^4 cells/well) and then were treated with 50 μM of DF5, RSV, or with vehicle and counted at 24, 48, and 72 h.

Capan-2 [2] = assay: Flow cytometry immunophenotyping of CD133+EpCAM+ cancer stem-like subpopulation; assay type: cell-based, human; settings: Capan-2, 20 μM, 72 h
Description: (§2) The expression of CD133 and EpCAM surface antigens was evaluated using flow cytometry. Briefly, the PC cells were seeded in 6-well plates and treated for 72 h with 20 μM DF5, RSV, or with vehicle (DMSO). After treatment, the cells were collected in PBS and stained at room temperature in the dark for 30 min with PE-CD133, FITC-EpCAM antibodies, and Reactive Dye. After labeling, the samples were washed in PBS by centrifugation at 1500 rpm for 10 min, to remove excess antibodies. Flow cytometer performance, stability, and data reproducibility were daily checked by using the CS&T quality control Module (BD Biosciences). The gating strategy and the evaluation of non-specific fluorescence was determined using fluorescence minus one (FMO) controls. The data were acquired with FACSVerse analyzer equipped with a volumetric count module (BD Biosciences, San Jose, CA, USA) and are expressed as the percentage of positive cells.

BxPC-3 [3] = assay: as above; assay type: cell-based, human; settings: BxPC-3, 20 μM, 72 h
Description: as §2

AsPC-1 [4] = assay: as above; assay type: cell-based, human; settings: AsPC-1, 20 μM, 72 h
Description: as §2

[5] = tested on: AsPC-1, BxPC-3 and Capan-2 PC cell lines; assay: Cell cycle analysis by flow cytometry; assay type: cell-based, human; settings: 50 μM, 24 h
Description: To perform the cell cycle analysis, the PC cells (3 × 10^5) were collected, fixed in 70% cold ethanol, and kept at 4 °C overnight. The collected cells were incubated at 4 °C overnight in 5 μg/mL PI (final concentration) and 100 μg/mL RNAse (final concentration). The cell cycle profiles were analyzed as previously described.

[6] = tested on: normal HFF-1 fibroblast cells; assay: MTT cell viability assay on normal fibroblasts; assay type: cell-based, human; settings: 72 h
Description: The cell viability was assessed using MTT assay, as previously described. Briefly, the cells were seeded in 96-well plates (4 × 10^3 cells/well) and were treated for 72 h with different concentrations of RSV, DF5, and DF12. The IC50 values were extrapolated from dose–response curves and calculated using the CompuSyn software (https://www.combosyn.com/). The selectivity index (SI) values were calculated as ratios between the IC50 values of compounds in normal HFF-1 fibroblast cells and the IC50 values of the same compounds in the PC cell lines.

Capan-2 [7] = assay: Apoptosis assay, annexin-V staining by flow cytometry; assay type: cell-based, human; settings: 24 h
Description: (§3) The apoptosis assay was performed essentially as previously described. the analyses were performed using a CytoFLEX flow cytometer, using the FL1 detector in linear mode and the CytoExpert software (Beckmann Coulter, Milano, Italy).

BxPC-3 [8] = assay: as above; assay type: cell-based, human; settings: 24 h
Description: as §3

AsPC-1 [9] = assay: as above; assay type: cell-based, human; settings: 24 h
Description: as §3

BxPC-3 [10] = assay: Colony formation assay; assay type: cell-based, human; settings: BxPC-3, 20 µM, 72 h treatment
Description: A colony formation assay was performed as previously described. Briefly, the PC cells were seeded in 6-well plates, incubated for 24 h, and then treated for 72 h with 20 μM DF5, DF12, and RSV or with vehicle (DMSO) as indicated. After 4 days, following methanol fixation and crystal violet staining, the colonies of at least 30 cells were counted.

[11] = tested on: poly-(ADP-ribose) polymerase (PARP); assay: Western blot of PARP cleavage in PC cell lines; assay type: cell-based, human; settings: vs untreated cells
Description: as §1

[12] = Enzymatic stability in simulated intestinal fluid (SIF) with pancreatin; assay type: in vitro ADME; settings: SIF pH 6.8 with pancreatin, 37 °C
Description: (§4) The SGF and SIF, containing pepsin and pancreatin, respectively, were prepared following the USP specifications. The reactions were carried out in a shaking water bath at 37 °C. The drug stock solution (10 μL of a 10^−4 M) was added to the preheated gastrointestinal fluids and, at fixed time points (0, 15, 30, and 60 min for SGF and 0, 60, 120, and 180 min for SIF), 20 μL of the media were mixed with 200 μL of cold acetonitrile containing 0.5% v/v of formic acid. The samples were centrifuged for 10 min at 5000× g and the supernatants were analyzed using HPLC. The relative difference (RD%) was used to predict the amount of compound decomposed in the presence of gastrointestinal fluids.

p-SER^139H2AX = assay: Western blot of phospho-H2AX (γH2AX) in PC cell lines; assay type: cell-based, human
Description: as §1

Cyclin D3 = assay: Western blot of cyclin D3 in PC cell lines; assay type: cell-based, human; settings: 50 μM
Description: as §1

[13] = Enzymatic stability in simulated gastric fluid (SGF) with pepsin; assay type: in vitro ADME; settings: SGF pH 1.2 with pepsin, 37 °C
Description: as §4

Cc1ccc(/C=C/c2ccc(O)cc2)cc1 [DF5]
effect on expression of the cyclin B1/CDK1 complex (cyclin B1/CDK1 complex; AsPC-1 and Capan-2, also Cdc2/CDK1 dephosphorylation at Thr-161): reduction in the expression of the cyclin B1/CDK1 complex
effect on expression of the cyclin B1/CDK1 complex (cyclin B1/CDK1 complex; BxPC-3): much less evident
solubility (Water solubility; read-out: Classification (water solubility)): < 100 µg/mL
solubility (Water solubility; read-out: Water Solubility): < 10 µg/mL
effect on cell growth (cell number) [1]: significantly, drastically, and comparably affected cell growth
effect on percentage of CD133+EpCAM+ cancer stem-like subpopulation (Capan-2 [2]): sharp and statistically significant reduction
effect on percentage of CD133+EpCAM+ cancer stem-like subpopulation (BxPC-3 [3]): statistically significant impact
effect on percentage of CD133+EpCAM+ cancer stem-like subpopulation (AsPC-1 [4]): sharp and statistically significant reduction
effect on cells in G0/G1 phase ([5]; across the three PC cell lines, vs untreated cells): statistically significant accumulation of cells at the G0/G1 phase
effect on cells in G2/M phase ([5]; three PC cell lines, in Capan-2 it did not reach statistical significance): drastic depletion of cells in the G2/M phase
toxicity against normal HFF-1 fibroblast cells ([6]; up to 100 μM): negligible toxicity
IC50 ([6]; Homo sapiens, normal HFF-1 fibroblasts, 100 μM highest concentration used): > 100 µM
apoptosis induction (Annexin V+ cells) (Capan-2 [7]; Capan-2, 20 μM): statistically significant apoptosis
apoptosis induction (Annexin V+ cells) (Capan-2 [7]; Capan-2, 50 μM): significant induction of apoptosis
apoptosis induction (Annexin V+ cells) (BxPC-3 [8]; BxPC-3, 20 μM): neither compound affected apoptosis
apoptosis induction (Annexin V+ cells) (BxPC-3 [8]; BxPC-3, 50 μM): significant induction of apoptosis
apoptosis induction (Annexin V+ cells) (AsPC-1 [9]; AsPC-1, 20 μM): statistically significant apoptosis
apoptosis induction (Annexin V+ cells) (AsPC-1 [9]; AsPC-1, 50 μM): significant induction of apoptosis
effect on clonogenicity (colony formation) (BxPC-3 [10]): totally abolish colony formation
effect on cleaved:uncleaved PARP ratio ([11]; AsPC-1, 50 μM): strong increase in cleaved:uncleaved PARP ratios
effect on cleaved:uncleaved PARP ratio ([11]; BxPC-3, 50 μM): minimal effects on the PARP cleavage ratio
effect on cleaved:uncleaved PARP ratio ([11]; Capan-2, 50 μM): strong increase in cleaved:uncleaved PARP ratios
RD% (relative difference) ([12]; 60 min): 8.12%
RD% (relative difference) ([12]; 120 min): 9.20%
RD% (relative difference) ([12]; 180 min): 9.36%
activation (phosphorylation) of H2AX (p-SER^139H2AX; AsPC-1, 50 μM): marked activation of H2AX
activation (phosphorylation) of H2AX (p-SER^139H2AX; BxPC-3, 50 μM): negligible activation
activation (phosphorylation) of H2AX (p-SER^139H2AX; Capan-2, 50 μM): less marked
effect on cyclin D3 expression (Cyclin D3): clear-cut reduction or even an abolishment in the expression of cyclin D3
RD% (relative difference) ([13]; 15 min): 4.36%
RD% (relative difference) ([13]; 30 min): 7.10%
RD% (relative difference) ([13]; 60 min): 8.87%
